Assay [1] concerns the target T1, C-terminal His6-tagged human JAK2 kinase (Homo sapiens, UniProt O60674).
T1 construct: His6 (C); purchased Upstate Biotechnology, MA 14-640; host or cells: baculovirus in Sf21 cells
Kind of assay: JAK2 Amplified Luminescent Proximity Homogeneous Assay (ALPHA) (Method 3). Format: biochemical. The conditions noted are these: biotinylated Tyk substrate, 20 minutes preincubation, 90 minutes at 25° C. How it is done: Activity of purified C-terminal His6-tagged human JAK2 kinase was determined in-vitro using an Amplified Luminescent Proximity Homogeneous Assay (ALPHA) (Perkin Elmer, MA), which measures phosphorylation of a biotinylated Tyk ([…]) substrate (Cell Signaling Technology, MA, Cat #2200B). Commercially available JAK2 (amino acids 808-end, Genbank Accession number NM 004972, Upstate Biotechnology, MA, Catalog 14-640) was expressed by baculovirus in Sf21 cells and affinity purified by Ni^+2/NTA agarose.
The phosphorylation of Tyk substrate in the presence and absence of the compound of interest was determined. Briefly, 5 μl of Enzyme/Substrate/adenosine triphosphate (ATP) mix consisting of 1.44 nM JAK2, 192 nM Tyk, and 12 mM ATP in 1.2× buffer was preincubated with 2 μl of compound for 20 minutes at 25° C. […] Phosphorylated substrate was detected by an EnVision plate reader (Perkin Elmer, MA) 680 nm excitation, 520-620 nm emission. Data was graphed and IC50s calculated using Excel Fit (Microsoft).

For assay [2], the target named is T2, N-terminal GST-tagged, recombinant, human JAK2 (amino acids 831-1132) (Homo sapiens, UniProt O60674).
T2 construct: human JAK2 (amino acids 831-1132, PLAZA database pAZB0359); GST (N); host or cells: insect cells
The assay can be described thus: JAK2 mobility shift assay on Caliper LC3000 (Method 2). The format is biochemical. Particulars: 0.3 nM JAK2 enzyme, 5 mM ATP, 1.5 μM SRCtide, 90 minutes room temperature. How it is done: Janus kinase 2 (JAK2) activity was also determined by measuring the kinase's ability to phosphorylate a tyrosine residue within a peptide substrate using a mobility shift assay on a Caliper LC3000 reader (Caliper, Hopkinton, Mass.), which measures fluorescence of the phosphorylated and unphosphorylated substrate and calculates a ratiometric value to determine percent turnover.
To measure JAK2 kinase activity, an in-house purified enzyme was used. […] After incubation of the kinase with a FAM labeled SRCtide substrate, adenosine triphosphate (ATP), and MgCl2 for 90 minutes at room temperature, the kinase reaction was stopped by the addition of 36 mM ethylenediaminetetraacetic acid (EDTA). The reaction was performed in 384 well microtitre plates and the reaction products were detected using the Caliper LC3000 Reader.

T2 sequence (O60674 831-1132): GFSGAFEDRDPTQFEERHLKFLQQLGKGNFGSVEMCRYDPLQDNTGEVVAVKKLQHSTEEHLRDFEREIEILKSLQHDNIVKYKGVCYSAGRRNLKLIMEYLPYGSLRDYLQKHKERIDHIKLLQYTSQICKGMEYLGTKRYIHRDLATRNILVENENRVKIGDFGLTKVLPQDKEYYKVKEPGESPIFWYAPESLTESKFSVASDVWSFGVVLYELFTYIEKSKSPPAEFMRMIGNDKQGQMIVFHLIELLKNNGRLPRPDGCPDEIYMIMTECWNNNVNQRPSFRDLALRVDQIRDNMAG
T1 sequence (O60674 808-1132 limits assumed): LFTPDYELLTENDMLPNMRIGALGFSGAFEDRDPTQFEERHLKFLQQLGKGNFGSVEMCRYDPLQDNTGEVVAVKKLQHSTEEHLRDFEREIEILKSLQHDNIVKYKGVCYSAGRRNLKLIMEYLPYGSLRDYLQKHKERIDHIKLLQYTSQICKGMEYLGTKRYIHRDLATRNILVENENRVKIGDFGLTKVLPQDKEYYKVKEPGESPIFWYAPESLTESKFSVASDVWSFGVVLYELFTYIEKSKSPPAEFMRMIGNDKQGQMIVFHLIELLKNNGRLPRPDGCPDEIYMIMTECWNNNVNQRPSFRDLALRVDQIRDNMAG

Broadly, the IC50 is the point on the concentration scale where inhibition reaches its midpoint. On to `CCn1ncc2c(Nc3cn(C)cn3)nc(NC(C)c3ncc(F)cn3)nc21` (single isomer, unassigned) [Example 9(a), 1-Ethyl-N^6-[1-(5-fluoropyrimidin-2-yl)ethyl]-N^4-(1-methyl-1H-imidazol-4-yl)-1H-pyrazolo[3,4-d]pyrimidine-4,6-diamine], for which the IC50 in assay [1] turned out to be 13700 nM.

As for `CC(Nc1nc(Nc2cn(C)cn2)c2ccn(C3CC3)c2n1)c1ncc(F)cn1` (single isomer, unassigned) [Example 24(b), 7-Cyclopropyl-N^2-[1-(5-fluoropyrimidin-2-yl)ethyl]-N^4-(1-methyl-1H-imidazol-4-yl)-7H-pyrrolo[2,3-d]pyrimidine-2,4-diamine], the IC50 in assay [2] amounted to 27 nM.

The compound `CC(Nc1nc(Nc2cn(C)cn2)c2cc[nH]c2n1)c1ncc(F)cc1F` (single isomer, unassigned) [Example 25(a), N^2-[1-(3,5-Difluoropyridin-2-yl)ethyl]-N^4-(1-methyl-1H-imidazol-4-yl)-7H-pyrrolo[2,3-d]pyrimidine-2,4-diamine] had an IC50 in assay [1] of 2900 nM.

Consider `CC(Nc1nc(Nc2cn(C)cn2)c2cc[nH]c2n1)c1ncc(F)cc1F` (single isomer, unassigned) [Example 25(b), N^2-[1-(3,5-Difluoropyridin-2-yl)ethyl]-N^4-(1-methyl-1H-imidazol-4-yl)-7H-pyrrolo[2,3-d]pyrimidine-2,4-diamine], for which, in assay [2], the IC50 is 10 nM.

Take `COc1cnc(C(C)Nc2nc(Nc3cn(C)cn3)c3cc[nH]c3n2)nc1` (single isomer, unassigned) [Example 27(a), N^2-[1-(5-Methoxypyrimidin-2-yl)ethyl]-N^4-(1-methyl-1H-imidazol-4-yl)-7H-pyrrolo[2,3-d]pyrimidine-2,4-diamine]: the concentration for half-maximal inhibition (IC50) in assay [2] came to 17600 nM.

As for `CC(Nc1nc(Nc2cn(C)cn2)c2cc(F)cnc2n1)c1ncc(F)cc1F` (single isomer, unassigned) [Example 31(a), N^2-[1-(3,5-Difluoropyridin-2-yl)ethyl]-6-fluoro-N^4-(1-methyl-1H-imidazol-4-yl)pyrido[2,3-d]pyrimidine-2,4-diamine], in assay [2], the IC50 was 80 nM.

For `CC(Nc1nc(Nc2cn(C)cn2)c2cc(F)cnc2n1)c1ncc(F)cc1F` (single isomer, unassigned) [Example 31(b), N^2-[1-(3,5-Difluoropyridin-2-yl)ethyl]-6-fluoro-N^4-(1-methyl-1H-imidazol-4-yl)pyrido[2,3-d]pyrimidine-2,4-diamine], in assay [2], the IC50 worked out at 15000 nM.

In the case of `C[C@H](Nc1nc(Nc2cn(C)cn2)c2cc(C(F)(F)F)[nH]c2n1)c1ncc(F)cn1` [Example 19, N^2-[(1S)-1-(5-Fluoropyrimidin-2-yl)ethyl]-N^4-(1-methyl-1H-imidazol-4-yl)-6-(trifluoromethyl)-7H-pyrrolo[2,3-d]pyrimidine-2,4-diamine], in assay [2], the half-inhibitory concentration (IC50) was 13 nM.

As for `Cc1cc2c(Nc3cn(C)cn3)nc(N[C@@H](C)c3ncc(F)cn3)nc2[nH]1` [Example 20, N^2-[(1S)-1-(5-Fluoropyrimidin-2-yl)ethyl]-6-methyl-N^4-(1-methyl-1H-imidazol-4-yl)-7H-pyrrolo[2,3-d]pyrimidine-2,4-diamine], the 50% inhibitory concentration (IC50) in assay [2] came out at 13 nM.

Turning to `COc1cnc(C(C)Nc2nc(Nc3cn(C)cn3)c3cc[nH]c3n2)nc1` (stereo not drawn) [Example 27(b), N^2-[1-(5-Methoxypyrimidin-2-yl)ethyl]-N^4-(1-methyl-1H-imidazol-4-yl)-7H-pyrrole[2,3-d]pyrimidine-2,4-diamine], the concentration for half-maximal inhibition (IC50) in assay [2] stood at 520 nM.

On to `C[C@H](Nc1nc(Nc2cn(C)cn2)c2ccc(C(F)(F)F)nc2n1)c1ncc(F)cn1` [Example 32, N^2-[(1S)-1-(5-Fluoropyrimidin-2-yl)ethyl]-N^4-(1-methyl-1H-imidazol-4-yl)-7-(trifluoromethyl)pyrido[2,3-d]pyrimidine-2,4-diamine], for which the 50% inhibitory concentration (IC50) in assay [2] was 35 nM.

Regarding `C[C@H](Nc1nc(Nc2cn(C)cn2)c2ccc(O)nc2n1)c1ncc(F)cn1` [Example 34, 2-{[(1S)-1-(5-Fluoropyrimidin-2-yl)ethyl]amino}-4-[(1-methyl-1H-imidazol-4-yl)amino]pyrido[2,3-d]pyrimidin-7-ol], the half-inhibitory concentration (IC50) in assay [2] amounted to 47 nM.

The values above are taken from patent US20110201628A1, “HETEROCYCLIC JAK KINASE INHIBITORS” (priority 2008, published 2011).
